Results as given in patent US10064885B2, “Metabolic gene, enzyme, and flux targets for cancer therapy” (Massachusetts Institute of Technology, priority 2010, dated 2018).

Legend:
Assay type in all cases: cell-based, human
[1] = test system: HCT116 colon carcinoma; test: Reductive carboxylation by [1-13C]glutamine labeling and GC/MS in HCT116 cells expressing shRNAs
Experimental: (§1) Cell Culture, Isotopic Labeling, and Hypoxia. All cell lines were cultured in Dulbecco's Modified Eagle Medium (DMEM; Mediatech) containing 10% fetal bovine serum (FBS; Invitrogen) and 100 U/ml penicillin/streptomycin (P/S; Mediatech) unless otherwise mentioned. Cell lines were obtained from ATCC unless otherwise noted. The VC3 glioma cell line was provided by Tim Lautenschlaeger (Ohio State University), MDA-MB-231 and HCT116 cell lines were provided by Ferdinando Chiaradonna (University of Milano-Bicocca), MRC5 cells were provided by Stephen Lippard (MIT), SN12C, ACHN, and 786-O cells were provided by Kevin Courtney and Lew Cantley (Harvard Medical School), and MCF10A cells were provided by Joan Brugge (Harvard Medical School), and Huh7 cells were provided by Mike Hemann (MIT). MCF10A cells were cultured in custom DMEM/F12 (Hyclone) containing 5% horse serum, 20 ng/ml EGF, 10 μg/ml insulin, 100 ng/ml cholera toxin, 0.5 mg/ml hydrocortisone, 100 U/ml penicillin/streptomycin, and labeled/unlabeled glucose and glutamine at 18 mM and 2.5 mM, respectively. PRC3, WT8, pTV, and pTR cell lines were subcloned from the 786-O cell line as previously described (42, 43). For isotopic labeling experiments, cells were cultured in 6 well plates in glucose- and glutamine-free DMEM (Sigma) containing 10% dialyzed FBS (Invitrogen), 100 U/ml P/S, naturally labeled glucose or glutamine, and the appropriate tracer, including [U-^13C5]glutamine (Isotec), [5-^13C]glutamine (C/D/N Isotopes), [1-^13C]glutamine, [U-^13C6]glucose, [1,2-^13C2]glucose (all from Cambridge Isotope Labs). Steady state labeling of organic and amino acids was accomplished by culturing subconfluent cells in tracer medium for 24 hours. […] The internal gas content was monitored using Fyrite gas analyzers (Bacharach) for CO2 and O2. […]
(§2) Metabolite Extraction and Gas Chromatography/Mass Spectrometry (GC/MS) Analysis. […] In some ISA experiments, cells were trypsinized, counted, and pelleted prior to lipid extraction as described above. […]

[2] = test system: A549 cells; test: 13C Metabolic Flux Analysis (MFA) of A549 cells expressing IDH1-targeting shRNAs, [U-13C5]glutamine tracer
Experimental: Cell Culture, Isotopic Labeling, and Hypoxia. All cell lines were cultured in Dulbecco's Modified Eagle Medium (DMEM; Mediatech) containing 10% fetal bovine serum (FBS; Invitrogen) and 100 U/ml penicillin/streptomycin (P/S; Mediatech) unless otherwise mentioned. Cell lines were obtained from ATCC unless otherwise noted. The VC3 glioma cell line was provided by Tim Lautenschlaeger (Ohio State University), MDA-MB-231 and HCT116 cell lines were provided by Ferdinando Chiaradonna (University of Milano-Bicocca), MRC5 cells were provided by Stephen Lippard (MIT), SN12C, ACHN, and 786-O cells were provided by Kevin Courtney and Lew Cantley (Harvard Medical School), and MCF10A cells were provided by Joan Brugge (Harvard Medical School), and Huh7 cells were provided by Mike Hemann (MIT). MCF10A cells were cultured in custom DMEM/F12 (Hyclone) containing 5% horse serum, 20 ng/ml EGF, 10 μg/ml insulin, 100 ng/ml cholera toxin, 0.5 mg/ml hydrocortisone, 100 U/ml penicillin/streptomycin, and labeled/unlabeled glucose and glutamine at 18 mM and 2.5 mM, respectively. PRC3, WT8, pTV, and pTR cell lines were subcloned from the 786-O cell line as previously described (42, 43). For isotopic labeling experiments, cells were cultured in 6 well plates in glucose- and glutamine-free DMEM (Sigma) containing 10% dialyzed FBS (Invitrogen), 100 U/ml P/S, naturally labeled glucose or glutamine, and the appropriate tracer, including [U-^13C5]glutamine (Isotec), [5-^13C]glutamine (C/D/N Isotopes), [1-^13C]glutamine, [U-^13C6]glucose, [1,2-^13C2]glucose (all from Cambridge Isotope Labs). Steady state labeling of organic and amino acids was accomplished by culturing subconfluent cells in tracer medium for 24 hours. Labeling of fatty acids for Isotopomer Spectral Analysis (USA) was conducted over 3-5 days of culture in an excess of tracer medium (3-4 ml/well in a 6 well plate) to prevent nutrient depletion. Hypoxic culture was conducted by feeding a custom mixture of 1% O2, 5% CO2, and 94% N2 to a standard incubator controlled at 5% CO2. HEPES (Mediatech) was added to the culture medium at 20 mM to maintain pH between normoxic and hypoxic cultures. The internal gas content was monitored using Fyrite gas analyzers (Bacharach) for CO2 and O2. O2 levels were confirmed at 1.5-2% during hypoxic culture.
Stable cell cultures with decreased IDH1 and IDH2 expression were generated via lentiviral-mediated shRNA expression. pLKO.1 lentiviral vectors targeting IDH1 with shRNA sequences of […] TT (IDH1a; TRCN0000027298; SEQ ID NO:1) and […] TT (IDH1b; TRCN0000027289; SEQ ID NO:2), IDH2 with shRNA sequence […] TT (TRCN0000027225; SEQ ID NO:3). For controls, either non-targeting control shRNA (SHC002; Sigma) or pLKO.1 scrambled control vector (44)(Addgene) were used. pLKO.1 vector targeting ARNT with shRNA sequence […] TT (TRCN0000003819; SEQ ID NO:4) was obtained from Open Biosystems.
HEK293T cells were co-transfected with pLKO.1 vectors and packaging plasmids to produce lentivirus. Filtered supernatants were used for infection, and cells were selected with puromycin (2 μg/ml) for at least two passages before initiating tracer and flux experiments.
Metabolite Extraction and Gas Chromatography/Mass Spectrometry (GC/MS) Analysis. At the conclusion of culture, cells were rinsed with 1 ml ice cold PBS and quenched with 0.4 ml ice cold methanol. An equal volume of water was added, and cells were collected in tubes by scraping with a pipette. One volume of ice cold chloroform was added to each tube, and the extracts were vortexed at 4° C. for 30 minutes. Samples were centrifuged at 14,000 g for 5 minutes at room temperature. For analysis of polar metabolites, the aqueous phase was transferred to a new tube for evaporation under airflow. For ISA experiments, the non-polar fraction was collected and evaporated under airflow. In some ISA experiments, cells were trypsinized, counted, and pelleted prior to lipid extraction as described above. […]

[3] = test system: 143B osteosarcoma; test: Reductive carboxylation by [1-13C]glutamine labeling and GC/MS in 143B cells expressing shRNAs
Experimental: as §1, with “respectively.” for “respectively. PRC3, WT8, pTV, and pTR cell lines were subcloned from the 786-O cell line as previously described (42, 43). For isotopic labeling experiments, cells were cultured in 6 well plates in glucose- and glutamine-free DMEM (Sigma) containing 10% dialyzed FBS (Invitrogen), 100 U/ml P/S, naturally labeled glucose or glutamine, and the appropriate tracer, including [U-^13C5]glutamine (Isotec), [5-^13C]glutamine (C/D/N Isotopes), [1-^13C]glutamine, [U-^13C6]glucose, [1,2-^13C2]glucose (all from Cambridge Isotope Labs). Steady state labeling of organic and amino acids was accomplished by culturing subconfluent cells in tracer medium for 24 hours.”
as §2

[4] = test system: MDA-MB-231 breast carcinoma; test: Reductive carboxylation by [1-13C]glutamine labeling and GC/MS in MDA-MB-231 cells expressing shRNAs
Experimental: as §1, §2

[5] = test system: Hypoxia response element- (HRE-) driven reporter; test: Hypoxia response element (HRE)-driven reporter in HCT116 cells expressing IDH1-targeting shRNAs; conditions: normal culture, hypoxia, or 1 mM DMOG, 18 hours
Experimental: Luciferase Assays. Subconfluent cells in 6 well plates were co-transfected with 1 μg of a firefly luciferase vector and 50 ng Renilla luciferase vector (pRL-TK; Promega) using Fugene 6 reagent. The ODD-Luciferase and Luciferase vectors were obtained from Addgene and based off of the pcDNA3.1 vector (49). Hypoxia responsive element-luciferase (HRE-Luc) vectors were used as described (50). Approximately 24 hours after transfection, medium was changed and cells were placed under normoxia, hypoxia, or treated with 1 mM dimethyloxalylglycine (DMOG). After 18 hours of treatment, cells were lysed and luciferase activity was determined using the Dual Luciferase Reporter Assay system (Promega) according to the manufacturer's instructions.

[6] = test system: A549 cells; test: Reductive glutamine metabolism by isotopic labeling and GC/MS in A549 cells expressing shRNAs
Experimental: as §1, §2

[7] = Anaplerotic reactions, exchange flux
[8] = Anaplerotic reactions, net flux
[9] = Pentose Phosphate Pathway, exchange flux
[10] = Pentose Phosphate Pathway, net flux

## CCGGGCTGCTTGCATTAAAGGTTTACTCGAGTAAACCTTTAATGCAAGCAGCTTT TT (CCGGGCTGCTTGCATTAAAGGTTTACTCGAGTAAACCTTTAATGCAAGCAGCTTTTT; expressed or natural sequence) [IDH1a, pLKO.1 lentiviral vector shRNA targeting IDH1]
[1]
  reductive carboxylation flux (M1 label from [1-13C]glutamine): reduces reductive carboxylation flux
[2]; Amino acids, exchange flux
  Flux Pyr.m <−> Ala: 0.00 fmol/cell*hr
[2]; Amino acids, net flux
  Flux Gln −> Glu: 22.97 fmol/cell*hr
  Flux Gln.x −> Gln: 23.47 fmol/cell*hr
  Flux Glu −> Glu.x: 18.56 fmol/cell*hr
  Flux Pyr.m −> Ala: 0.42 fmol/cell*hr
[2]; [7]
  Flux Glu <−> Akg: 499.30 fmol/cell*hr
  Flux Mal <−> Pyr.m + CO2: 0.00 fmol/cell*hr
  Flux Oac <−> Asp: 0.01 fmol/cell*hr
[2]; [8]
  Flux Glu −> Akg: 3.90 fmol/cell*hr
  Flux Mal −> Pyr.m + CO2: 5.44 fmol/cell*hr
  Flux Oac −> Asp: 0.61 fmol/cell*hr
  Flux Pyr.m + CO2 −> Oac: 2.14 fmol/cell*hr
[2]; Biomass, net flux
  Flux 0.6*Asp + 0.5*Glu + 0.42*Ala + 0.5*Gln −> Biomass: 1.01 fmol/cell*hr
  Flux AcCoA.c −> Fatty acids: 10.65 fmol/cell*hr
  Flux Cit −> AcCoA.c + Oac: 10.65 fmol/cell*hr
  Flux P5P −> NTP: 0.50 fmol/cell*hr
[2]; Dilution/Mixing
  Flux 0*Pyr.c −> Pyr.mnt: 1.00 fmol/cell*hr
  Flux 0*Pyr.m −> Pyr.mnt: 0.00 fmol/cell*hr
  Flux 0*Suc −> Suc.mnt: 0.24 fmol/cell*hr
  Flux Suc.d −> Suc.mnt: 0.76 fmol/cell*hr
[2]; Dilution/Mixing, exchange flux
  Flux Pyr.c <−> Pyr.m: 82.77 fmol/cell*hr
[2]; Dilution/Mixing, net flux
  Flux Pyr.c −> Pyr.m: 11.79 fmol/cell*hr
[2]; Glycolysis, exchange flux
  Flux DHAP <−> GAP: 566.90 fmol/cell*hr
  Flux G6P <−> F6P: 3.2E+04 fmol/cell*hr
  Flux GAP <−> 3PG: 1.7E+08 fmol/cell*hr
  Flux Pyr.c <−> Lac: 706.50 fmol/cell*hr
[2]; Glycolysis, net flux
  Flux 3PG −> Pyr.c: 186.40 fmol/cell*hr
  Flux DHAP −> GAP: 91.96 fmol/cell*hr
  Flux F6P −> DHAP + GAP: 91.96 fmol/cell*hr
  Flux G6P −> F6P: 86.95 fmol/cell*hr
  Flux GAP −> 3PG: 186.40 fmol/cell*hr
  Flux Glc.x −> G6P: 94.96 fmol/cell*hr
  Flux Lac −> Lac.x: 174.60 fmol/cell*hr
  Flux Pyr.c −> Lac: 174.60 fmol/cell*hr
[2]; [9]
  Flux P5P + E4P <−> F6P + GAP: 1.76 fmol/cell*hr
  Flux P5P + P5P <−> S7P + GAP: 3.0E+04 fmol/cell*hr
  Flux S7P + GAP <−> F6P + E4P: 1.9E+05 fmol/cell*hr
[2]; [10]
  Flux G6P −> P5P + CO2: 8.01 fmol/cell*hr
  Flux P5P + E4P −> F6P + GAP: 2.50 fmol/cell*hr
  Flux P5P + P5P −> S7P + GAP: 2.50 fmol/cell*hr
  Flux S7P + GAP −> F6P + E4P: 2.50 fmol/cell*hr
[2]; TCA Cycle, exchange flux
  Flux Fum <−> Mal: 1.1E+06 fmol/cell*hr
  Flux Mal <−> Oac: 98.66 fmol/cell*hr
  Flux Suc <−> Fum: 0.00 fmol/cell*hr
[2]; TCA Cycle, exchange flux (reductive IDH flux)
  Flux Cit <−> Akg + CO2: 1.88 fmol/cell*hr
[2]; TCA Cycle, net flux
  Flux AcCoA.m + Oac −> Cit: 14.66 fmol/cell*hr
  Flux Akg −> Suc + CO2: 7.91 fmol/cell*hr
  Flux Fum −> Mal: 7.91 fmol/cell*hr
  Flux Mal −> Oac: 2.48 fmol/cell*hr
  Flux Pyr.m −> AcCoA.m + CO2: 14.66 fmol/cell*hr
  Flux Suc −> Fum: 7.91 fmol/cell*hr
[2]; TCA Cycle, net flux (IDH)
  Flux Cit −> Akg + CO2: 4.01 fmol/cell*hr
[3]
  reductive carboxylation flux: reduces reductive carboxylation flux
[4]
  reductive carboxylation flux (M1 label from [1-13C]glutamine): reduces reductive carboxylation flux
[5]
  HRE-driven reporter levels (hypoxia signaling): does not increase hypoxia signaling and stabilization
[6]; [U-13C5]glutamine, aspartate, malate, fumarate
  M3 mass isotopomers derived from [U-13C5]glutamine (reductive carboxylation): decrease in reductive carboxylation

## CCGGGTGGACATCCAGCTAAAGTATCTCGAGATACTTTAGCTGGATGTCCACTTT TT (CCGGGTGGACATCCAGCTAAAGTATCTCGAGATACTTTAGCTGGATGTCCACTTTTT; expressed or natural sequence) [IDH2 shRNA, pLKO.1 lentiviral vector shRNA targeting IDH2]
[1]
  reductive carboxylation flux (M1 label from [1-13C]glutamine): does not affect reductive carboxylation flux
[4]
  reductive carboxylation flux (M1 label from [1-13C]glutamine): does not affect reductive carboxylation flux
[6]; [1-13C]glutamine
  reductive carboxylation (M1 label from [1-13C]glutamine): does not affect reductive carboxylation flux
